The results in this text go back to the NIST ThermoML archive (doi:10.1021/je700725j).

The conditions of this data set: Liquid.

The structures appear in SMILES notation. Numbers after ± are expanded uncertainties.

Consider `CC(F)(F)F` [1,1,1-trifluoroethane], for which the vapor or sublimation pressure (usually the pressure of vapour in equilibrium with the condensed phase) (273.15 K) was determined as 620 ± 4 kPa; the “vapor or sublimation pressure” value (283.15 K) is 837 ± 5 kPa; the “vapor or sublimation pressure” value (293.15 K) was determined as 1104 ± 7 kPa; the “vapor or sublimation pressure” value (303.15 K) is recorded as 1432 ± 9 kPa; the “vapor or sublimation pressure” value (313.15 K) stood at 1830 ± 11 kPa; the “vapor or sublimation pressure” value (323.15 K) is 2298 ± 14 kPa.

Take `CCCC` [butane]: the “vapor or sublimation pressure” value (273.15 K) was determined as 104 ± 2 kPa; the “vapor or sublimation pressure” value (283.15 K) came to 150 ± 2 kPa; the “vapor or sublimation pressure” value (293.15 K) turned out to be 208 ± 2 kPa; the “vapor or sublimation pressure” value (303.15 K) amounted to 284 ± 3 kPa; the “vapor or sublimation pressure” value (313.15 K) turned out to be 378 ± 3 kPa; the “vapor or sublimation pressure” value (323.15 K) is listed as 494 ± 4 kPa.
